For one data set, the system named is U266 cells. In words: U266 cell viability (Axenin V method) and cell counts. The data set is classed as cell-based, human. On the procedure: The U266 cells were incubated in the presence of the noted concentrations of ELP-004, and the viability of the cells was determined at the indicated times using the Axenin V method.
Initial treatment with N-methyl dichloropropionaniline (N-MeDCPA, ELP-004) was examined. The N-MeDCPA was designed and synthesized and tested in laboratory experiments. A treatment scheme with plated cells was devised using N-MeDCPA as compared to a DMSO vehicle only, along with 100 μM and 200 μM dosages on U266 cell samples. U266 is a B lymphocyte isolated from the peripheral blood of a patient with myeloma and is commonly used in immune system disorder research and immunology research. The cells were allowed to incubate then counted under a 10× lens.
As may be seen in FIG. 1, the growth curve of cell samples as treated with the varying concentrations versus a DMSO vehicle can be observed. The number of cells per milliliter was calculated after examination and counting under the lens.
The effect of ELP-004 (i.e. N-MeDCPA) on […] (a myeloma cell line) proliferation is described above.

The test system of data set [1] is Murine BMSMCs. The data set is described as follows: TNFα-induced osteoclast fusion (TRAP, multinucleation, marker mRNA). The format is cell-based. As to conditions: RANKL/TNFα. How it is done:
(A_C) Murine BMSMCs were grown for up to 21 days in media supplemented with 50 ng/ml m-CSF, […] RANKL and 2 ng/ml TNFα. Each experiment was repeated a minimum of three times. Cells were fixed and stained for Tartrate Resistant Acid Phosphatase (TRAP)_activity at days 1, 7, 14 and 21. In schematic A, the number of TRAP positive osteoclast-like cells (out of 100 cells) were counted for each time point; TRAP intensity was also calculated. In schematic B, at each time point the number of nuclei for each cell was counted and the average number of nuclei per cell for 100 cells is shown. […] The expression patterns of osteoclast markers was unaffected by ELP-004, indicating selective inhibition of specific features of osteoclastogenesis.

In data set [2] the test system is Murine BMSMCs. In words: LTB4-induced osteoclast fusion (TRAP, multinucleation, marker mRNA). The format is cell-based. As to conditions: RANKL/LTB4. On the procedure:
FIGS. 6A-C show ELP-004 blocking LTB4-induced Osteoclast Fusion. (A-C) Murine BMSMCs were grown for up to 21 days in media supplemented with 50 ng/ml m-CSF, 1 ng/ml RANKL and 50 nM LTB4. Each experiment was repeated a minimum of three times. Cells were fixed and stained for Tartrate Resistant Acid Phosphatase (TRAP) activity at days 1, 7, 14 and 21. In schematic A, the number of TRAP positive osteoclast-like cells (out of 100 cells) were counted for each time point; TRAP intensity was also calculated. In schematic B, at each time point, the number of nuclei for each cell was counted and the average number of nuclei per cell for 100 cells is shown. In schematic C, mRNA expression of osteoclast markers such as TRAP5, VATPASE A3, VATPASE D2 and Calcitonin Receptor (CALCR) were measured at days 7 and 14 for both control and treated cells by RT-PCR. […] The expression patterns of osteoclast markers was unaffected by ELP-004, indicating selective inhibition of specific features of osteoclastogenesis.

A further data set can be described thus: water solubility. The format is physicochemical. An excerpt: Those persons of ordinary skill in the art will understand that ELP-004 may be solubilized in ethanol and then diluted in sterile saline. These methods include wherein the route of administration may be, for example but not limited to, the intravenous, intramuscular, or subcutaneous routes, or via the oral route of administration.

The next data set concerns the target T1, CYP2B6 (Homo sapiens, UniProt P20813).
T1 sequence (P20813 1-491): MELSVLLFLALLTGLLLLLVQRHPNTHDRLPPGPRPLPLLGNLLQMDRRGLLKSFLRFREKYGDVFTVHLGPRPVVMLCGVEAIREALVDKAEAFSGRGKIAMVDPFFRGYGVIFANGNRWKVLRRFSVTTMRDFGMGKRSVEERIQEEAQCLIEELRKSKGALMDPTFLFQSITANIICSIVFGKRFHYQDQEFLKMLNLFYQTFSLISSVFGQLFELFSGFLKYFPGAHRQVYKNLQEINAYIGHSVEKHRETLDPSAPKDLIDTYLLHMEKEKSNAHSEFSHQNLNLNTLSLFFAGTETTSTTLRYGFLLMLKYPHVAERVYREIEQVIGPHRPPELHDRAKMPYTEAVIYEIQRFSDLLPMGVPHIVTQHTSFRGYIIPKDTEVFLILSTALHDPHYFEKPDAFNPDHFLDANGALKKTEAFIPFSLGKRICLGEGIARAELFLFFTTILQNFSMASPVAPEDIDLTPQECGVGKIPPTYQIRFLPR
The data set is described as follows: stability with recombinant CYP2B6. The format is in vitro ADME. The following applies: recombinant CYP2B6, intrinsic clearance, read-out: Recombinant CYP CLINT. On the procedure:
(§1) Depicted in table 2 is cytochrome P450 phenotyping and inhibition by ELP-004. The stability of ELP-004 was tested in the presence of recombinant enzymes CYP1A2, CYP2B6, CYP2C8, CYP2C9, CYP2C19, CYP2D6, and CYP3A4. ELP-004 (1 μM) was incubated with recombinant enzymes and NADPH. The amount of ELP-004 remaining at each timepoint was analyzed by LC-MS/MS. Incubations in control recombinant enzymes were also performed to assess non-enzymatic mediated stability. The intrinsic clearance of ELP-004 was determined. […] A decrease in the formation of the metabolite compared to vehicle control is used to calculate an IC50 value. Metabolite peak area ratio response as a percentage of vehicle control is plotted against the test compound concentration.

Another data set addresses CYP2D6 (Homo sapiens, UniProt P10635). The data set is described as follows: stability with recombinant CYP2D6. The format is in vitro ADME. On the procedure:
as §1

pIC50: −log10 of the molar value.

Chain of CYP2D6 (P10635 whole entry): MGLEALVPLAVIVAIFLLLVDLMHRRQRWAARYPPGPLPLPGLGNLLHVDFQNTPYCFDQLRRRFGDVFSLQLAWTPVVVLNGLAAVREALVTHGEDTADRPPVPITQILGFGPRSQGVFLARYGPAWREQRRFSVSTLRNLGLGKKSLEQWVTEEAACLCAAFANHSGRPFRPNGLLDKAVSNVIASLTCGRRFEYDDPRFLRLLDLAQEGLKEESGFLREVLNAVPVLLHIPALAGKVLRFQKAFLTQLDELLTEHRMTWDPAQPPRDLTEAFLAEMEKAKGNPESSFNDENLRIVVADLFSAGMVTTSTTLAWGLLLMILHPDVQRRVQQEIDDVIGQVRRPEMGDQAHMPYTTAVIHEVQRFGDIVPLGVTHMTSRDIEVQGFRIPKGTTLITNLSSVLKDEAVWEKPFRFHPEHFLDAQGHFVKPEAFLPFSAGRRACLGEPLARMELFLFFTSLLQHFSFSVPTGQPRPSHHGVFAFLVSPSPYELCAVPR

Consider `CCC(=O)N(C)c1ccc(Cl)c(Cl)c1` [ELP-004, N-(3,4-dichlorophenyl)-N-methylpropanamide], for which the pIC50 with U266 cells (Homo sapiens, U-266, U266 cells, viability by Axenin V method, calculated using two methods) is 3.81. For the same compound, the myeloma cell proliferation result in the data set with U266 cells (U66 (U266) myeloma cell line) is recorded as “inhibits myeloma cell proliferation”. Moreover, in the data set with Murine BMSMCs [1], the TRAP activity entry is recorded as “completed abrogated”, the “expression patterns of osteoclast markers” value is “unaffected” and the multinucleation entry is given as “severely attenuated”. For the same compound, in the data set with Murine BMSMCs [2], the TRAP activity entry is reported as “completed abrogated”, the “expression patterns of osteoclast markers” value was “unaffected” and the multinucleation result is listed as “severely attenuated”. Moreover, the water solubility entry in “water solubility” is “not water soluble”. For the same compound, the microsomal CLint at 1 μM at CYP2B6 came out at 0.815 µL/min/mg. Besides, on CYP2D6 (human, recombinant CYP2D6, intrinsic clearance, read-out: Recombinant CYP CLINT), the microsomal CLint at 1 μM is below 0.154 µL/min/mg. In addition, the “metabolism by recombinant enzyme” value at CYP2D6 (recombinant CYP2D6) was “not metabolized”. Moreover, the “ELP-004 t1/2” value at CYP2D6 (recombinant CYP2D6, 1 μM, NADPH) was above 3 h.
